Results from publication PMC6522510 (Nature Communications, 2019).
pEC50: −log10 of the molar value. Counter-ions that a name gives are not always drawn. Like-named read-outs stand apart in the source and are kept apart here.

Legend:
CMS = test: Secondary dose-response HTS, Cell Titer Glo; format: cell-based, human
U937 = test: Secondary dose-response HTS, Cell Titer Glo; format: cell-based, human
MV4-11 [1] = test: Secondary dose-response HTS, Cell Titer Glo; format: cell-based, human; details: MV4-11
MOLM-13 = test: Secondary dose-response HTS, Cell Titer Glo; format: cell-based, human; details: MOLM-13
CHRF288-11 = test: Secondary dose-response HTS, Cell Titer Glo; format: cell-based, human
CMK = test: Secondary dose-response HTS, Cell Titer Glo; format: cell-based, human; details: CMK
M07e = test: cells; parameters: species or system AML cell lines (8); Secondary HTS, 10-point dose-response in triplicate, Cell Titer Glo viability, four-parameter fit EC50; details: M-07e, 72 h, read-out: M07e
ML2 = test: Secondary dose-response HTS, Cell Titer Glo; format: cell-based, human; details: secondary high-throughput screen, ML-2; for pEC50: read-out: average effective concentration, ML-2
MV4-11 [2] = test: cells; parameters: species or system AML cell lines (8); Secondary HTS, 10-point dose-response in triplicate, Cell Titer Glo viability, four-parameter fit EC50; details: Homo sapiens, MV4-11, 72 h, read-out: MV4-11
[3] = Homo sapiens, secondary high-throughput screen, read-out: average effective concentration, MV4-11
[4] = Homo sapiens, secondary high-throughput screen, read-out: average effective concentration, MOLM-13
[5] = Homo sapiens, HTS, secondary high-throughput screen, CHRF288-11, read-out: average effective concentration, CHRF288-11
[6] = Homo sapiens, read-out: average effective concentration, CMK
[7] = Homo sapiens, HTS, secondary high-throughput screen, CMS, read-out: average effective concentration, CMS
[8] = Homo sapiens, U-937, secondary high-throughput screen, U937, read-out: average effective concentration, U937
[9] = Homo sapiens, secondary high-throughput screen, read-out: average effective concentration, CMK
[10] = secondary high-throughput screen, CMS
[11] = secondary high-throughput screen, U937
[12] = secondary high-throughput screen
[13] = secondary high-throughput screen, read-out: average effective concentration, MOLM-13
[14] = secondary high-throughput screen, CMS, read-out: average effective concentration, CMS
[15] = secondary high-throughput screen, U937, read-out: average effective concentration, U937
[16] = secondary high-throughput screen, CHRF288-11, read-out: average effective concentration, CHRF288-11

Molecule | pEC50 (MV4-11 [1]; [3]) | pEC50 (MOLM-13; [4]) | pEC50 (U937; [8]) | pEC50 (CHRF288-11; [5]) | pEC50 (CMS; [7]) | pEC50 (M07e) | pEC50 (ML2; Homo sapiens) | pEC50 (CMK; [9]) | average effective concentration, MV4-11 (MV4-11 [1]; [12]) | average effective concentration, CMK (CMK; [12]) | pEC50 (MOLM-13; [13]) | further results
Cn1cc(CNCC2CCN(c3ncc(C(=O)NO)cn3)CC2)c2ccccc21 [Quisinostat, reference compound] | 8.22 | 7.96 | – | 8.05 | – | – | – | – | – | – | – | pEC50 (CMS; Homo sapiens, HTS, 72 h, read-out: EC50 CMS): 9.00; pEC50 (U937; Homo sapiens, U-937, secondary HTS, 72 h, average of triplicate, read-out: EC50 U937): 8.00; pEC50 (MV4-11 [1]; Homo sapiens, secondary HTS, 72 h, average of triplicate, read-out: EC50 MV4-11): 8.00; pEC50 (MOLM-13; Homo sapiens, secondary HTS, 72 h, average of triplicate, read-out: EC50 MOLM-13): 8.00; pEC50 (CHRF288-11; Homo sapiens, secondary HTS, 72 h, average of triplicate, read-out: EC50 CHRF288-11): 8.00; pEC50 (CMK; Homo sapiens, 72 h, read-out: EC50 CMK): 7.70; pEC50 (CMK; [6]): 7.74
O=C(NCC1(c2nc(-c3ccccc3)cs2)CCOCC1)c1cccc(-c2noc(C(F)(F)F)n2)c1 [TMP269] | – | – | – | – | – | – | – | – | Inactive | Inactive | – | average effective concentration, CMS (CMS; [10]): Inactive; average effective concentration, U937 (U937; [11]): Inactive; average effective concentration, ML-2 (ML2): Inactive; average effective concentration, MOLM-13 (MOLM-13; [12]): Inactive; average effective concentration, CHRF288-11 (CHRF288-11; secondary high-throughput screen, CHRF288-11): Inactive
BLEOMYCIN | – | – | – | – | – | – | – | – | Inactive | Inactive | 5.16 | average effective concentration, CMS (CMS; [10]): Inactive; average effective concentration, U937 (U937; [11]): Inactive
I-BET151 | – | – | – | – | – | – | – | – | Inactive | Inactive | 6.19 | pEC50 (CMS; [14]): 5.68; pEC50 (U937; [15]): 5.49; pEC50 (ML2): 5.57; pEC50 (CHRF288-11; [16]): 5.29
MITHRAMYCIN A | – | – | – | – | – | – | – | – | – | – | 6.85 | pEC50 (CMS; [14]): 6.74; pEC50 (U937; [15]): 6.62; pEC50 (ML2): 6.64; pEC50 (MV4-11 [1]; secondary high-throughput screen, read-out: average effective concentration, MV4-11): 7.28; pEC50 (CHRF288-11; [16]): 6.80; pEC50 (CMK; secondary high-throughput screen, read-out: average effective concentration, CMK): 6.59

Now from value to molecule, other results behind:

pEC50 (MV4-11 [1]; [3]) | pEC50 (MOLM-13; [4]) | pEC50 (U937; [8]) | Molecule | pEC50 (CHRF288-11; [5]) | pEC50 (CMS; [7]) | pEC50 (M07e) | pEC50 (ML2; Homo sapiens) | pEC50 (CMK; [9]) | average effective concentration, MV4-11 (MV4-11 [1]; [12]) | average effective concentration, CMK (CMK; [12]) | pEC50 (MOLM-13; [13]) | further results
6.30 | 6.40 | 5.48 | Cc1cnc(NC(=O)Nc2cc(Br)c(C)cc2OC[C@@H]2CNCCO2)cn1 [RABUSERTIB] | 5.68 | 5.07 | < 5.00 | 7.13 | 6.35 | – | – | – | –
6.92 | 7.10 | 7.30 | C=CCNC1=C2C[C@@H](C)C[C@H](OC)[C@H](O)[C@@H](C)/C=C(\C)[C@H](OC(N)=O)[C@@H](OC)/C=C\C=C(/C)C(=O)NC(=CC1=O)C2=O [TANESPIMYCIN] | 5.89 | 6.74 | < 5.00 | 7.00 | 6.55 | – | – | – | –
7.25 | 6.66 | 6.80 | CC[C@]1(O)C[C@@H]2CN(CCc3c([nH]c4ccccc34)[C@@](C(=O)OC)(c3cc4c(cc3OC)N(C)[C@H]3[C@@](O)(C(=O)OC)[C@H](OC(C)=O)[C@]5(CC)C=CCN6CC[C@]43[C@@H]65)C2)C1 [VINBLASTINE SULFATE] | 6.24 | 6.47 | < 5.00 | 6.24 | 5.42 | – | – | – | –
7.70 | 8.00 | 7.66 | COCCn1c2c([n+](Cc3cnccn3)c1C)C(=O)c1ccccc1C2=O [YM-155] | 5.64 | 7.04 | < 5.00 | 7.68 | 7.51 | – | – | – | –
– | 5.00 | 5.00 | C/C1=C\CC(C)(C)/C=C/C(=O)/C(C)=C/CC1 [ZERUMBONE] | 5.07 | – | < 5.00 | 5.16 | – | – | – | – | pEC50 (CMS; Homo sapiens, HTS, read-out: average effective concentration, CMS): 5.14; pEC50 (CMK; [6]): 5.14; pEC50 (MV4-11 [2]): < 5.00
